Source: ChEMBL document CHEMBL3576805, “Discovery of a Dual PRMT5-PRMT7 Inhibitor” (ACS Med Chem Lett, 2015)
Calls of active or inactive are those of the source. No cut-off for these calls is given here.

Key:
PRMT5/MEP50 complex [1] = molecular target: T1, PRMT5/MEP50 complex (Homo sapiens, UniProt O14744); assay: (§1) Inhibition of human full length PRMT5-MEP50 complex expressed in Sf9 cells
[2] = molecular target: T2, PRMT5/MEP50 complex (Homo sapiens) (UniProt O14744+Q9BQA1); assay: Inhibition of human full length PRMT5-MEP50 complex expressed in Sf9 cells assessed as inhibition of methylation of peptide substrate at 750 uM
[3] = molecular target: T3, Protein arginine N-methyltransferase 7 (Homo sapiens, UniProt Q9NVM4); assay: Inhibition of human full length PRMT7 expressed in Sf9 cells
T3 sequence (Q9NVM4 whole entry): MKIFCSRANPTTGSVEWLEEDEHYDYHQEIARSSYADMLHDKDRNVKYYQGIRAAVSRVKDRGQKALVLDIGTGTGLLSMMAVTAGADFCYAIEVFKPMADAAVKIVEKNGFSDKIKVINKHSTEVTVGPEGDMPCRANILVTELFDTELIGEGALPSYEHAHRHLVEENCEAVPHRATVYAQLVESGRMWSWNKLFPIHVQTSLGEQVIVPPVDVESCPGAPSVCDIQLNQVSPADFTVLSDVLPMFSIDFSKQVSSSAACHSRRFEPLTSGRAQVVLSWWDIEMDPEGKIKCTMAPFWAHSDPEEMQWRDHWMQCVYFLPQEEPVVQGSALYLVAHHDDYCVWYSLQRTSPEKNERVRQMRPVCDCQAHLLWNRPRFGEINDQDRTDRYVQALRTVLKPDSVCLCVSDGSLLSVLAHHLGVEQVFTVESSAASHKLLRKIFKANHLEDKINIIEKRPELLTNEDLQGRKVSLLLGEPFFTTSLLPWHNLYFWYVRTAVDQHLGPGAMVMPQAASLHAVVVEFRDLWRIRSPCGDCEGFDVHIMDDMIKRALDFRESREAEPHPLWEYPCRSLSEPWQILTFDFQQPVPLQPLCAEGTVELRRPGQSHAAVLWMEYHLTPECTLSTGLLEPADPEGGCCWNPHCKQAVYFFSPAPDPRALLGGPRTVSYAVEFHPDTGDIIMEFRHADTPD

[4] = molecular target: DNA (cytosine-5)-methyltransferase 3A (Homo sapiens, UniProt Q9Y6K1); assay: Inhibition of human full length DNMT3A expressed in Sf9 cells
Chain of DNA (cytosine-5)-methyltransferase 3A (Q9Y6K1 whole entry, looked up): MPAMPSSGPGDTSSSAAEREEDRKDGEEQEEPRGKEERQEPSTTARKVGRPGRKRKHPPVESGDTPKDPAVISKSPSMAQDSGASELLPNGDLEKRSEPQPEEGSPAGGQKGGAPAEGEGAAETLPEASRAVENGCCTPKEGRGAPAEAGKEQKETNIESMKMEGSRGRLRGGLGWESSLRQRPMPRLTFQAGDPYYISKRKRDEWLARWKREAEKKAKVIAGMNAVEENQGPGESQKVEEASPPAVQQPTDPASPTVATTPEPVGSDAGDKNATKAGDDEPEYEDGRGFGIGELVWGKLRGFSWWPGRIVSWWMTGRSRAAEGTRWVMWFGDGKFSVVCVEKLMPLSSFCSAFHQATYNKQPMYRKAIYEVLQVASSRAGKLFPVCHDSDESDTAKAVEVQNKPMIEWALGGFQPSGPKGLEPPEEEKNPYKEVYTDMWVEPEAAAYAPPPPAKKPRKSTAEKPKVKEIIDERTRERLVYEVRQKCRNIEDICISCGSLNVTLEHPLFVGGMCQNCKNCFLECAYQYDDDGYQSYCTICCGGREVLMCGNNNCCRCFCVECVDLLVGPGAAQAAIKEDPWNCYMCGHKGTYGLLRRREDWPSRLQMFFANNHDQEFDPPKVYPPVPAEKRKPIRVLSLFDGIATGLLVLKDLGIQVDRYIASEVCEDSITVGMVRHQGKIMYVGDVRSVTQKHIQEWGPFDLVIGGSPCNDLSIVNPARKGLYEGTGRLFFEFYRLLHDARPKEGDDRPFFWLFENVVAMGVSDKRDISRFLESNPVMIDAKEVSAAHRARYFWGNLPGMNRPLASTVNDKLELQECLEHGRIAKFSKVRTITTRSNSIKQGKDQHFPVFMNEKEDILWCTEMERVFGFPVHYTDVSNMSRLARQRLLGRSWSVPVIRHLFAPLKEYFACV

[5] = molecular target: DNA (cytosine-5)-methyltransferase 3B (Homo sapiens, UniProt Q9UBC3); assay: Inhibition of human full length DNMT3B expressed in Sf9 cells
[6] = molecular target: T2, PRMT5/MEP50 complex (Homo sapiens); assay: as §1
[7] = molecular target: Protein arginine N-methyltransferase 5 (Homo sapiens, UniProt O14744); assay: Inhibition of human full length PRMT5 expressed in Sf9 cells
Chain of Protein arginine N-methyltransferase 5 (O14744 whole entry): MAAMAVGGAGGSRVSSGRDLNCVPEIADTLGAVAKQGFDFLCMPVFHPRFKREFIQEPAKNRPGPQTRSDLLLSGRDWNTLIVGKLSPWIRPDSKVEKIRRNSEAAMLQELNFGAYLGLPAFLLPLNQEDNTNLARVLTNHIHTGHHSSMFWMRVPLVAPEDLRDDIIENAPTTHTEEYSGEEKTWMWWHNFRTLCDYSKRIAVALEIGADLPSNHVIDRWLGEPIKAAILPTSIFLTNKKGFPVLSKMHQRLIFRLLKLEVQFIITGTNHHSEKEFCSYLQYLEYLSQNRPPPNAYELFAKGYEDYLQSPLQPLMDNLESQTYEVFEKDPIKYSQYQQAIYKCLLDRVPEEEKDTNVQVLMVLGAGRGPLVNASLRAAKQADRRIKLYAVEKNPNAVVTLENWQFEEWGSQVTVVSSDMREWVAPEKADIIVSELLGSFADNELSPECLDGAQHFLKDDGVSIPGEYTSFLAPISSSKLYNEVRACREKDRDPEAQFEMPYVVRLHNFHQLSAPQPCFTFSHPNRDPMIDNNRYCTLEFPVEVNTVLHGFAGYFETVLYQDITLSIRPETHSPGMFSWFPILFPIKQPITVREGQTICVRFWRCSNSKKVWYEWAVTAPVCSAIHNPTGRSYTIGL

PRMT5/MEP50 complex [8] = molecular target: T1, PRMT5/MEP50 complex; assay: Binding affinity to human full length PRMT5-MEP50 complex by Surface plasmon resonance method; type: protein-complex assay
[9] = molecular target: T3, Protein arginine N-methyltransferase 7; assay: Binding affinity to human full length PRMT7 by Surface plasmon resonance method
[10] = molecular target: T2, PRMT5/MEP50 complex (Homo sapiens); assay: Noncompetitive inhibition of human full length PRMT5-MEP50 complex expressed in Sf9 cells in presence of increasing concentration of histone peptide substrate
[11] = molecular target: Protein arginine N-methyltransferase 1 (Homo sapiens) (UniProt Q99873); assay: Inhibition of PRMT1 (unknown origin)
Chain of Protein arginine N-methyltransferase 1 (Homo sapiens) (Q99873 whole entry, looked up): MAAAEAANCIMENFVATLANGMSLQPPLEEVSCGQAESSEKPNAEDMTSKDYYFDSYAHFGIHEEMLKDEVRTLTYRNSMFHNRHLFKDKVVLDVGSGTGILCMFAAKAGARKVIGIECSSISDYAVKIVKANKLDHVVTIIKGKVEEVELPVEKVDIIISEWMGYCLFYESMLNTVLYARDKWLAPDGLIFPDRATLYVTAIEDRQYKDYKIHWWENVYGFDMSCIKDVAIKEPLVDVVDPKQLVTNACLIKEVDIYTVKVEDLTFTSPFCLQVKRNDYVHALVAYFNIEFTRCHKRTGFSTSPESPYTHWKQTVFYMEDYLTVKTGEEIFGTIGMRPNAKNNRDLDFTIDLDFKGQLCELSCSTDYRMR

[12] = molecular target: Protein arginine N-methyltransferase 3 (Homo sapiens) (UniProt O60678); assay: Inhibition of PRMT3 (unknown origin)
Chain of Protein arginine N-methyltransferase 3 (Homo sapiens) (O60678 2-531 limits assumed): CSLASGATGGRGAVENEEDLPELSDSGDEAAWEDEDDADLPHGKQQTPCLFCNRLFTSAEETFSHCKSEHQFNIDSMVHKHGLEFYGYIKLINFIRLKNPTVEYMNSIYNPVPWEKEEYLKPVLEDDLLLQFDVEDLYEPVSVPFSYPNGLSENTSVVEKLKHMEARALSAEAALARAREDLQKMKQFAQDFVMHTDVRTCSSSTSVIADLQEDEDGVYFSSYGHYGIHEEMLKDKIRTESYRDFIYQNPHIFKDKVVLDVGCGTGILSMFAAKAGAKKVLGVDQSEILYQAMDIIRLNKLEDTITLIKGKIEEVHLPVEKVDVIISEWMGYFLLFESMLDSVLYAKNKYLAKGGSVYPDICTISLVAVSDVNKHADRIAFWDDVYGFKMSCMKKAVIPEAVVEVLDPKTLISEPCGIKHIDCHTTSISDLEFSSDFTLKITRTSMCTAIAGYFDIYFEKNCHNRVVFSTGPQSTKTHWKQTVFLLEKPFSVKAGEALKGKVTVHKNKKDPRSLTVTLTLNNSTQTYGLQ

[13] = molecular target: Protein arginine N-methyltransferase 6 (Homo sapiens) (UniProt Q96LA8); assay: Inhibition of PRMT6 (unknown origin)
Chain of Protein arginine N-methyltransferase 6 (Homo sapiens) (Q96LA8 whole entry, looked up): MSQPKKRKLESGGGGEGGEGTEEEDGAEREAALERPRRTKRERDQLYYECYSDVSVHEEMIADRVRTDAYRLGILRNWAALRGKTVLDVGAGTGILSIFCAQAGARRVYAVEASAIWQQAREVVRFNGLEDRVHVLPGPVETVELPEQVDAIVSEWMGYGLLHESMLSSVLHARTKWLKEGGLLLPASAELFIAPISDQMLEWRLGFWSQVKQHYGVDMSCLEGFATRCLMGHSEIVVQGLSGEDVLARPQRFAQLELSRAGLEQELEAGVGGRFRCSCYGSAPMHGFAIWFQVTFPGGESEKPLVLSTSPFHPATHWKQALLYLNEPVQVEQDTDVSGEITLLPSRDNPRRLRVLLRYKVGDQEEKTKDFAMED

[14] = molecular target: Protein arginine N-methyltransferase 8 (Homo sapiens) (UniProt Q9NR22); assay: Inhibition of PRMT8 (unknown origin)
Chain of Protein arginine N-methyltransferase 8 (Homo sapiens) (Q9NR22 2-394 limits assumed): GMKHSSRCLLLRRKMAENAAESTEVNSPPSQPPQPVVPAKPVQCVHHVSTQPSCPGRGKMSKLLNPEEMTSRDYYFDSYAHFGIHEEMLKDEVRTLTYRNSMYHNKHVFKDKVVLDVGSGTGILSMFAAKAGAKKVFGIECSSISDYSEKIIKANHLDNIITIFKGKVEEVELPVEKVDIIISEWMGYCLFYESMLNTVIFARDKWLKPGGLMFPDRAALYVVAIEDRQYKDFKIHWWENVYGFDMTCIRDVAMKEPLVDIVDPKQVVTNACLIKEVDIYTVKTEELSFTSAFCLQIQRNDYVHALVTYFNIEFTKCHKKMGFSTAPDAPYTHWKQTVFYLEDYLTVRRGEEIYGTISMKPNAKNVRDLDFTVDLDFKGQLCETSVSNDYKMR

MDA-MB-231 [15] = assay: Inhibition of H4R3 methylation in human MDA-MB-231 cells at 50 uM by immunoblotting analysis; type: functional, cell-based
MDA-MB-231 [16] = assay: Cytotoxicity against human MDA-MB-231 cells assessed as cell viability by Alamar blue assay; type: cell-based
[17] = molecular target: T2, PRMT5/MEP50 complex (Homo sapiens); assay: Inhibition of human full length PRMT5-MEP50 complex expressed in Sf9 cells using SmD3 peptide AGRGRGKAAILKAQVAARGRGRGMGRGN as a substrate
PRMT5/MEP50 complex [18] = molecular target: T1, PRMT5/MEP50 complex; assay: Inhibition of human full length PRMT5-MEP50 complex expressed in Sf9 cells using full length histone H4 substrate

T1 sequence (O14744 whole entry): as the sequence (O14744 whole entry) above
T1 sequence (Q9BQA1 whole entry, further chain): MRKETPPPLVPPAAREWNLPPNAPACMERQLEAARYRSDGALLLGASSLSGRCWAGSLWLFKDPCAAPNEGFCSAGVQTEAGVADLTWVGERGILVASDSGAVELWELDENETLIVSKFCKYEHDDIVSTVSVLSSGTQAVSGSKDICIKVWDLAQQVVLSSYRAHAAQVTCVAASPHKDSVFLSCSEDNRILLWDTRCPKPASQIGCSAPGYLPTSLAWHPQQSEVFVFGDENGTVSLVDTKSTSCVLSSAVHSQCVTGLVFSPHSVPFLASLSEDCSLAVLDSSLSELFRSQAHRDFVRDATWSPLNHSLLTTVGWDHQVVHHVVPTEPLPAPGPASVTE

## CC(C)N(CCCNC(=O)Nc1ccc(C(C)(C)C)cc1)C[C@H]1O[C@@H](n2ccc3c(N)ncnc32)[C@H](O)[C@@H]1O
PRMT5/MEP50 complex [1]
  IC50: > 20 µM
[2]
  inhibition: 80%
[3]
  IC50: 7.5 µM

## Nc1ncnc2c1ncn2[C@@H]1O[C@H](CSCC[C@H](N)C(=O)O)[C@@H](O)[C@H]1O [S-ADENOSYLHOMOCYSTEINE]
[4]
  IC50: > 50 µM
[5]
  IC50: > 50 µM

## CCNC(=O)NCCSC[C@H]1O[C@@H](n2cnc3c(N)ncnc32)[C@H](O)[C@@H]1O
[6]
  inhibition: Dose-dependent effect
PRMT5/MEP50 complex [1]
  IC50: 5.9 µM
[7]
  IC50: > 50 µM
[3]
  IC50: > 50 µM
[4]
  IC50: > 50 µM
[5]
  IC50: > 50 µM
PRMT5/MEP50 complex [8]
  Kd: 25 µM
[9]
  Kd: 37 µM
[10]
  inhibition: Active
[11]
  inhibition: inactive
[12]
  inhibition: inactive
[13]
  inhibition: inactive
[14]
  inhibition: inactive
MDA-MB-231 [15]
  inhibition: inactive
MDA-MB-231 [16]
  Activity: Non-toxic
[17]
  inhibition: Active
PRMT5/MEP50 complex [18]
  IC50: 37 µM
